The results in this text go back to patent US9902728B2, “Pyrrolo and pyrazolopyrimidines as ubiquitin-specific protease 7 inhibitors” (Forma Therapeutics, Inc., priority 2014, dated 2018).

T1 sequence (Q93009 208-1102): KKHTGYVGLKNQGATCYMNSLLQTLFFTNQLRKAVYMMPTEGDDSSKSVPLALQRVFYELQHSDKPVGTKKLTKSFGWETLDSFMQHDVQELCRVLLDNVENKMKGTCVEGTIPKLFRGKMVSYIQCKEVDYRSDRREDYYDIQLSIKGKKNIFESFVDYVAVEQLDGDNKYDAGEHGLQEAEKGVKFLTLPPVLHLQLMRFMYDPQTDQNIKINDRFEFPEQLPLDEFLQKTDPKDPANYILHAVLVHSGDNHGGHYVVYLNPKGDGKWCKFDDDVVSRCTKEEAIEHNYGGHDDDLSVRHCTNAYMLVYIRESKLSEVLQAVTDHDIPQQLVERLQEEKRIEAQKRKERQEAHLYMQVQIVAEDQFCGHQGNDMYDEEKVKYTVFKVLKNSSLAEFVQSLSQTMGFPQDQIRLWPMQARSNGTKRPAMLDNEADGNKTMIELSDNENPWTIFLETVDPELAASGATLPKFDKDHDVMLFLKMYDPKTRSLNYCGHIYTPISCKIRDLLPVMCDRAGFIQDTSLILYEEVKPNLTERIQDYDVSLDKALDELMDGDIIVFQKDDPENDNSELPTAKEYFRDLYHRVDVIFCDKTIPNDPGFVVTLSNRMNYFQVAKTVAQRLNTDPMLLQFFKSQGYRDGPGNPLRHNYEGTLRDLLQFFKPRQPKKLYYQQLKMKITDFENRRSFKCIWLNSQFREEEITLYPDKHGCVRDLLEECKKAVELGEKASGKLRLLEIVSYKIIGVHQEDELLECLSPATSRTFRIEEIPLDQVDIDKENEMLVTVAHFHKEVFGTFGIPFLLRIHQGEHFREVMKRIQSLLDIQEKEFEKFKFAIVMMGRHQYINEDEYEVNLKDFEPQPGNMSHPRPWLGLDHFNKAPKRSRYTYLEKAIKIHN

The first experiment concerns the target T1, USP7 (Homo sapiens, UniProt Q93009).
T1 construct: USP7, construct USP7 (208-1102) 6*His, Viva Biotech; 6xHis (C); purchased Viva Biotech
The experiment is described as follows: USP7 Assay A (Ubitquin-Rhodamine 110 Assay). It is filed as biochemical. The note with it: USP7 activity in USP7 assay A and B (table does not say which assay per compound); read-out: USP7_IC50. The method in brief:
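Ub-Rh110 cleavage in 20 mM Tris-HCl pH 8.0 with 1 mM GSH, 0.03% BGG, 0.01% Triton X-100; compound preincubated with enzyme 30 min before substrate.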
In the case of `O=C(c1ccc(-c2cnn3c2OCC3)cc1)N1CCC(O)(Cn2cnc3c(cnn3-c3ccc(F)cc3)c2=O)CC1` [Compound I-550], the IC50 fell in the range of 200 to 1000 nM. In the case of `O=C(c1ccc(-c2cnn3c2OCCC3)cc1)N1CCC(O)(Cn2cnc3c(cnn3-c3ccc(F)cc3)c2=O)CC1` [Compound I-551], the IC50 fell in the range of 200 to 1000 nM. Turning to `O=C(c1ccc(-c2cnn3c2NCCC3)cc1)N1CCC(O)(Cn2cnc3c(cnn3-c3ccc(F)cc3)c2=O)CC1` [Compound I-552], the IC50 fell in the range of 200 to 1000 nM. Still for that read-out and setting: with `Nc1cc(Cl)ccc1C(=O)N1CCC(O)(Cn2cnc3c(cnn3-c3ccc(F)cc3)c2=O)CC1` [Compound I-554] the figure was 1000 to 10000 nM; with `O=C(c1cnc(N2CCOCC2)o1)N1CCC(O)(Cn2cnc3c(cnn3-c3ccc(F)cc3)c2=O)CC1` [Compound I-555], 200 to 1000 nM; with `O=C(c1nnc(C2CC2)o1)N1CCC(O)(Cn2cnc3c(cnn3-c3ccc(F)cc3)c2=O)CC1` [Compound I-556], 1000 to 10000 nM.

On to `O=C(c1ncoc1Cc1ccccc1)N1CCC(O)(Cn2cnc3c(cnn3-c3ccc(F)cc3)c2=O)CC1` [Compound I-557], for which the IC50 is 200 to 1000 nM. On the same count and under the same terms, the figure for `O=C(c1cccn1Cc1ccc(F)cc1)N1CCC(O)(Cn2cnc3c(cnn3-c3ccc(F)cc3)c2=O)CC1` [Compound I-558] is 200 to 1000 nM; for `O=C(c1cccn1Cc1c(F)cccc1F)N1CCC(O)(Cn2cnc3c(cnn3-c3ccc(F)cc3)c2=O)CC1` [Compound I-559] it is 1000 to 10000 nM. Same read-out and setting: the figure for `O=C(c1cccn1Cc1cccc(F)c1)N1CCC(O)(Cn2cnc3c(cnn3-c3ccc(F)cc3)c2=O)CC1` [Compound I-560] is 200 to 1000 nM; for `O=C(c1cccn1Cc1ccccc1F)N1CCC(O)(Cn2cnc3c(cnn3-c3ccc(F)cc3)c2=O)CC1` [Compound I-561] it is 200 to 1000 nM.

For the molecule `Cn1cc(Oc2ccc(C(=O)N3CCC(O)(Cn4cnc5c(cnn5-c5ccc(F)cc5)c4=O)CC3)cc2)cn1` [Compound I-562], the IC50 fell in the range of 1000 to 10000 nM. Still for that read-out and setting: the figure for `Cc1cc(Oc2ccc(C(=O)N3CCC(O)(Cn4cnc5c(cnn5-c5ccc(F)cc5)c4=O)CC3)cc2)no1` [Compound I-563] is 1000 to 10000 nM; for `O=C(c1cn[nH]c1Cc1ccccc1)N1CCC(O)(Cn2cnc3c(cnn3-c3ccc(F)cc3)c2=O)CC1` [Compound I-603] it is less than 200 nM; for `CN1CC2CC1CN2c1ccc(C(=O)N2CCC(O)(Cn3cnc4c(cnn4-c4ccc(F)cc4)c3=O)CC2)cc1` (stereo not drawn) [Compound I-604] it is 1000 to 10000 nM. Same read-out and setting: the figure for `O=C(N1CCC(Oc2ccccn2)CC1)N1CCC(O)(Cn2cnc3c(cnn3-c3ccc(F)cc3)c2=O)CC1` [Compound I-610] is 1000 to 10000 nM; for `O=C(c1ccc(-n2ncc3c2CNC3)cc1)N1CCC(O)(Cn2cnc3c(cnn3-c3ccc(F)cc3)c2=O)CC1` [Compound I-611] it is 1000 to 10000 nM; for `O=C(c1ccc(-n2cc(CO)cn2)cc1)N1CCC(O)(Cn2cnc3c(cnn3-c3ccc(F)cc3)c2=O)CC1` [Compound I-612] it is 1000 to 10000 nM. Still for that read-out and setting: the figure for `NCc1cnn(-c2ccc(C(=O)N3CCC(O)(Cn4cnc5c(cnn5-c5ccc(F)cc5)c4=O)CC3)cc2)c1` [Compound I-613] is 1000 to 10000 nM. Consider `O=C(c1cnc(C2CC2)o1)N1CCC(O)(Cn2cnc3c(cnn3-c3ccc(C4CC4)cc3)c2=O)CC1` [Compound I-629], for which the IC50 is less than 200 nM.

For the molecule `O=C(c1cnc(N2CCOCC2)o1)N1CCC(O)(Cn2cnc3c(cnn3-c3ccc(-c4ccccc4)cc3)c2=O)CC1` [Compound I-643], the IC50 is 200 to 1000 nM. Still for that read-out and setting: with `O=C(C[C@H](C(F)F)n1cccn1)N1CCC(O)(Cn2cnc3c(cnn3-c3ccc(-c4ccccc4)cc3)c2=O)CC1` [Compound I-645] the figure was 200 to 1000 nM; with `O=C(C[C@@H](C(F)F)n1cccn1)N1CCC(O)(Cn2cnc3c(cnn3-c3ccc(-c4ccccc4)cc3)c2=O)CC1` [Compound I-646], 1000 to 10000 nM.

Regarding `C=CC(=O)N1CC[C@]1(C)C(=O)N1CCC(O)(Cn2cnc3c(cnn3-c3ccc(-c4ccccc4)cc3)c2=O)CC1` [Compound I-660], the IC50 fell in the range of 200 to 1000 nM.

The same experiment, now with this note: USP7 assay A and B (table does not say which assay per compound); read-out: USP7_IC50.
Turning to `C=CC(=O)N1CC[C@@H]1C(=O)N1CCC(O)(Cn2cnc3c(cnn3-c3ccc(F)cc3)c2=O)CC1` [Compound I-574], the IC50 was 200 to 1000 nM. Still for that read-out and setting: the figure for `C=CC(=O)NC1CCC(C(=O)N2CCC(O)(Cn3cnc4c(cnn4-c4ccc(F)cc4)c3=O)CC2)CC1` (stereo not drawn) [Compound I-576] is 1000 to 10000 nM; for `C=CC(=O)N1CC[C@]1(C)C(=O)N1CCC(O)(Cn2cnc3c(cnn3-c3ccc(F)cc3)c2=O)CC1` [Compound I-580] it is 200 to 1000 nM; for `C#CC(=O)N(C)C1CC(C(=O)N2CCC(O)(Cn3cnc4c(cnn4-c4ccc(F)cc4)c3=O)CC2)C1` (stereo not drawn) [Compound I-589] it is 1000 to 10000 nM. With `CC1(O)CCN(Cc2cccc(C(=O)N3CCC(O)(Cn4cnc5c(cnn5-c5ccc(F)cc5)c4=O)CC3)c2)C1` (stereo not drawn) [Compound I-601], the IC50 was more than 10000 nM. Regarding `CN1CCC(c2ccc(C(=O)N3CCC(O)(Cn4cnc5c(cnn5-c5ccc(F)cc5)c4=O)CC3)cc2)CC1` [Compound I-605], the IC50 is more than 10000 nM. Consider `CN1CCN(c2ccc(C(=O)N3CCC(O)(Cn4cnc5c(cnn5-c5ccc(F)cc5)c4=O)CC3)cc2)CC1` [Compound I-606], for which the IC50 fell in the range of 1000 to 10000 nM. Still for that read-out and setting: the figure for `COc1ccc(C(=O)N2CCC(O)(C(C)n3cnc4c(cnn4-c4ccc(F)cc4)c3=O)CC2)cc1` (stereo not drawn) [Compound I-614] is more than 10000 nM; for `COc1ccc(-n2ncc3c(=O)n(CC4(O)CCN(C(=O)c5ccc(F)cc5)CC4)cnc32)cc1` [Compound I-620] it is 200 to 1000 nM.

Consider `COc1cccc(-n2ncc3c(=O)n(CC4(O)CCN(C(=O)c5ccc(F)cc5)CC4)cnc32)c1` [Compound I-621], for which the IC50 lay within 1000 to 10000 nM. Same read-out and setting: with `COc1ccc(-n2ncc3c(=O)n(C(C)C4(O)CCN(C(=O)c5ccc(F)cc5)CC4)cnc32)cc1` (stereo not drawn) [Compound I-624] the figure was 200 to 1000 nM; with `COc1ccc(C(=O)N2CCC(O)(C(C)n3cnc4c(cnn4-c4ccc(OC)cc4)c3=O)CC2)cc1` (stereo not drawn) [Compound I-625], 1000 to 10000 nM.

With `COc1cc(-n2ncc3c(=O)n(CC4(O)CCN(C(=O)c5ccc(F)cc5)CC4)cnc32)ccc1F` [Compound I-627], the IC50 was in the range of 1000 to 10000 nM. Turning to `O=C(c1ccc(F)cc1)N1CCC(O)(Cn2cnc3c(cnn3-c3ccc(F)c(O)c3)c2=O)CC1` [Compound I-632], the IC50 lay within 1000 to 10000 nM. The same measure, in the same setting: the figure for `COC1(C)CCN(c2cc(-n3ncc4c(=O)n(CC5(O)CCN(C(=O)C6CC6)CC5)cnc43)ccc2F)C1` (stereo not drawn) [Compound I-633] is 1000 to 10000 nM; for `CN1CCN(c2cc(-n3ncc4c(=O)n(CC5(O)CCN(C(=O)c6ccccc6)CC5)cnc43)ccc2F)CC1` [Compound I-634] it is 1000 to 10000 nM; for `Nc1cc(-n2ncc3c(=O)n(CC4(O)CCN(C(=O)c5ccc(F)cc5)CC4)cnc32)ccc1F` [Compound I-635] it is 1000 to 10000 nM. Same read-out and setting: the figure for `CC1(O)CCN(c2cc(-n3ncc4c(=O)n(CC5(O)CCN(C(=O)C6CC6)CC5)cnc43)ccc2F)C1` (stereo not drawn) [Compound I-636] is 200 to 1000 nM. On the same count and under the same terms, with `C[C@]1(O)CCN(c2cc(-n3ncc4c(=O)n(CC5(O)CCN(C(=O)C6CC6)CC5)cnc43)ccc2F)C1` [Compound I-637] the figure was 200 to 1000 nM; with `C[C@@]1(O)CCN(c2cc(-n3ncc4c(=O)n(CC5(O)CCN(C(=O)C6CC6)CC5)cnc43)ccc2F)C1` [Compound I-638], 200 to 1000 nM; with `O=C(c1ccc(F)cc1)N1CCC(O)(Cn2cnc3c(cnn3-c3ccc(F)c(N4CCOCC4)c3)c2=O)CC1` [Compound I-639], 1000 to 10000 nM.

As to `O=C(c1ccc(F)cc1)N1CCC(O)(Cn2cnc3c(cnn3-c3ccc(F)c(CO)c3)c2=O)CC1` [Compound I-640], the IC50 was 1000 to 10000 nM. On the same count and under the same terms, the figure for `O=C(c1ccc(OC(F)F)cc1)N1CCC(O)(Cn2cnc3c(cnn3-c3ccc(F)c(CO)c3)c2=O)CC1` [Compound I-641] is 1000 to 10000 nM; for `CC(CC(=O)N1CCC(O)(Cn2cnc3c(cnn3-c3ccc(-c4ccccc4)cc3)c2=O)CC1)n1cccn1` (stereo not drawn) [Compound I-648] it is 1000 to 10000 nM. Still for that read-out and setting: with `C[C@@H](CC(=O)N1CCC(O)(Cn2cnc3c(cnn3-c3ccc(-c4ccccc4)cc3)c2=O)CC1)n1cccn1` [Compound I-649] the figure was 200 to 1000 nM. In the case of `C[C@H](CC(=O)N1CCC(O)(Cn2cnc3c(cnn3-c3ccc(-c4ccccc4)cc3)c2=O)CC1)n1cccn1` [Compound I-650], the IC50 was 1000 to 10000 nM. As for `CC(CC(=O)N1CCC(O)(Cn2cnc3c(cnn3-c3ccc(-c4ccc(F)cc4)cc3)c2=O)CC1)n1cccn1` (stereo not drawn) [Compound I-652], the IC50 was 200 to 1000 nM. Still for that read-out and setting: the figure for `C[C@H](CC(=O)N1CCC(O)(Cn2cnc3c(cnn3-c3ccc(-c4ccc(F)cc4)cc3)c2=O)CC1)n1cccn1` [Compound I-653] is 200 to 1000 nM; for `C[C@@H](CC(=O)N1CCC(O)(Cn2cnc3c(cnn3-c3ccc(-c4ccc(F)cc4)cc3)c2=O)CC1)n1cccn1` [Compound I-654] it is more than 10000 nM. Still for that read-out and setting: the figure for `CNC(=O)N1CCC(O)(Cn2cnc3c(cnn3-c3ccc(-c4ccc(F)cc4)cc3)c2=O)CC1` [Compound I-655] is 1000 to 10000 nM; for `C=CC(=O)N1CCC1C(=O)N1CCC(O)(Cn2cnc3c(cnn3-c3ccc(-c4ccccc4)cc3)c2=O)CC1` (stereo not drawn) [Compound I-657] it is 200 to 1000 nM. On to `C#CC(=O)NC1CC(C(=O)N2CCC(O)(Cn3cnc4c(cnn4-c4ccc(-c5ccccc5)cc4)c3=O)CC2)C1` (stereo not drawn) [Compound I-658], for which the IC50 lay within 1000 to 10000 nM. Still for that read-out and setting: with `O=C(NC1CNCC1F)N1CCC(O)(Cn2cnc3c(cnn3-c3ccc(-c4ccccc4)cc3)c2=O)CC1` (stereo not drawn) [Compound I-662] the figure was more than 10000 nM. On the same count and under the same terms, with `O=C(N[C@@H]1CNCC1F)N1CCC(O)(Cn2cnc3c(cnn3-c3ccc(-c4ccccc4)cc3)c2=O)CC1` (stereo partly drawn) [Compound I-663] the figure was more than 10000 nM.

In the case of `O=C(N[C@H]1CNCC1F)N1CCC(O)(Cn2cnc3c(cnn3-c3ccc(-c4ccccc4)cc3)c2=O)CC1` (stereo partly drawn) [Compound I-664], the IC50 was 1000 to 10000 nM.

`O=C(c1ccccc1)N1CCC(O)(Cn2cnc3c(cnn3-c3ccc(-c4ccccc4)c(CO)c3)c2=O)CC1` [Compound I-665]: the IC50 lay in the range of 1000 to 10000 nM.
